Read-outs that look alike come from different tables or passages of the source.

A short description of data set [1]: Liver microsomes stability, rat. Particulars: for half-life at 2 μM / microsomal CLint at 2 μM: male, rat; for half-life at 2 μM / microsomal CLint at 2 μM / Remaining Percentage (%) after 60 min, Rat, With cofactors / Remaining Percentage (%) after 60 min, Rat, Without cofactors: rat liver microsomes. As to the method: (§1) 40 μL of 10 mM NADPH solution was added to each well. The final concentration of NADPH was 1 mM. The negative control samples were prepared by replacing NADPH with 40 μL of ultra-pure H2O. Samples were prepared in duplicate. Negative controls were prepared in singlet.
(§2) This study was performed in duplicate.
(§3) LC/MS analysis was performed for all samples from this study using a Shimadzu liquid chromatograph separation system equipped with degasser DGU-20A5R; solvent delivery unit LC-30AD; system controller SIL-30AC; column oven CTO-30A; CTC Analytics HTC PAL System. Mass spectrometric analysis was performed using a Triple Quad™ 5500 instrument.
(§4) All calculations were carried out using Microsoft Excel.
(§5) All calculations were carried out using Microsoft Excel. Peak areas were determined from extracted ion chromatograms.
In general terms: Liver microsomes are vesicles of endoplasmic reticulum, rich in cytochrome P450 enzymes.

Data set [2] can be described thus: Intestinal mucosal permeation using Caco-2 cell monolayers. Particulars: human; for Papp A→B at 2 h, 5 µM / Papp B→A at 2 h, 5 µM / efflux ratio at 2 h, 5 μM: Caco-2, pH 7.4. Here is the method:
Plate was returned to incubator.
Vortexed for 5 minutes. […] Incubated at 37° C. for 30 minutes.
On the technique in general: Passage across Caco-2 layers is used to estimate intestinal permeability.

A short description of data set [3]: Liver microsomes stability, human. The following applies: for Remaining Percentage (%) after 60 min, Human, With cofactors / Remaining Percentage (%) after 60 min, Human, Without cofactors: human liver microsomes; for half-life at 2 μM / microsomal CLint at 2 μM / metabolic stability in liver microsomes (statement): human; for half-life at 2 μM / microsomal CLint at 2 μM: pooled human liver microsomes; for metabolic stability in liver microsomes (statement): rat and mouse liver microsomes. Here is the method:
as §1, §2, §3, §4, §5

Data set [4] addresses human 5-HT2A receptor (Homo sapiens, UniProt P28223). Description: Human 5-HT2A functional FLIPR assay (agonist mode). Format: cell-based. Set-up: expressed in transfected cells. The following applies: for RFU@10 μM: FLIPR, h5-HT2A, curve fitting with activation (%) @ 10 mM with RFU (footnote). Here is the method:
The potential excitatory effects of compounds targeting on human 5-hydroxytryptamine receptor 2A (5-HT2A) under agonist mode was assessed.
HTR2A&Gα15-HEK293 cells were cultured in DMEM medium containing 10% dialyzed FBS and 1×penicillin-streptomycin, 100 μg/mL Hygromycin B and 300 μg/mL G418. The cells were passaged about three times a week, maintained between ~30% to ~90% confluence.
• 1. The cell culture medium (DMEM medium containing 10% dialyzed FBS and 1×penicillin-streptomycin, 100 μg/mL Hygromycin B and 300 μg/mL G418), TrypLE™ Express and DPBS to R.T. was warmed in advance. • 2. For induction, 1 μg/ml tetracycline (final concentration) was added to cell culture medium and incubated for 48 hours prior to seeding cells into plate at 37° C., 5% (v/v) CO2. The cell culture medium was removed from flask. Cells were washed with DPBS. • 3. 2 mL TrypLE™ Express was added to the flask, mixed well by gentle shaking and cells were incubated at 37° C. for a few minutes. • 4. The cells were checked for morphological change under microscope, the digestion was stopped by adding 4 mL cell culture medium to the flask when most of cells turned to round. • 5. The cell suspension was transferred into a 15 mL centrifuge tube, and then centrifuged at 1,200 rpm for 5 minutes. • 6. The supernatant was removed. The cell pellet was resuspended with 2 mL cell culture medium. • 7. The cell density was counted using cell counter. Only cells with >85% viability were used for the assay. • 8. Cells were diluted to 6.67×10^5/mL with cell culture medium. • 9. 30 μL/well cell suspensions added into a 384-well cell plate (The cell density was 20,000 cells/well). • 10. The cell plate was incubated overnight at 37° C., 5% (v/v) CO2.
On the day of experiments, culture medium was removed from the cell plate.
10 μL of assay buffer (20 mM HEPES, in 1×HBSS, pH 7.4) was added to each well of the cell plate.
2×dye solution was prepared following the manual of the FLIPR® Calcium 6 Assay Kit: • i. The dye was diluted with assay buffer. • ii. Probenecid was added to the final concentration of 5 mM. • iii. Vortexed vigorously for 1-2 minutes. • 4. 10 μL of 2×dye solution was added to each well of the cell plate • 5. The cell plate was placed on plate shaker, followed by shaking at 600 rpm for 2 minutes. • 6. The plate was incubated at 37° C. for 2 hours followed by an additional 15-minute incubation at 25° C. 2.4 Prepare 3×compound • 1. Serotonin HCl was prepared to the concentration of 10 mM with DMSO. • 2. The test compounds were prepared to the concentration of 10 mM with DMSO. • 3. The compounds were added to a 384-well compound source plate. • 4. 3-folds serial dilutions were performed with DMSO. • 5. 90 nL/well of serial diluted compounds was transferred from source plate to a 384-well compound plate by using an Echo. • 6. 30 μL/well of assay buffer (20 mM HEPES in 1×HBSS, pH 7.4) was added to the compound plate. • 7. The plate was mixed on-plate shaker for 2 minutes.
• 1. After the cells were incubated with dye solution, the cell plate, compound plate containing 3×compounds and FLIPR tips were placed into FLIPR. • 2. 10 μL of 3×compounds transferred from the compound plate to the cell plate by FLIPR. • 3. The plate was read for 160 sec with 1 sec interval and the data of agonist mode was obtained.
• 1. The normalized fluorescence reading (RFU) was calculated as shown below, wherein Fmax and Fmin stand for maximum and minimum of calcium signal during defined time window:
[formula] • 2. EC50 by fitting RFU against log of compound concentrations with Hill equation was calculated using XLfit.

[5] abbreviates: Caco-2, pH 7.4, Percentage recovery (%) A→B, Caco-2, A→B.
Where [6] appears, read: Caco-2, pH 7.4, Percentage recovery (%) B→A, Caco-2, B→A.
Setting [7] is: FLIPR agonist mode, HTR2A&Gα15-HEK293 cells, ND: not detected, read-out: h5-HT2A, EC50.

Chain of human 5-HT2A receptor (P28223 whole entry): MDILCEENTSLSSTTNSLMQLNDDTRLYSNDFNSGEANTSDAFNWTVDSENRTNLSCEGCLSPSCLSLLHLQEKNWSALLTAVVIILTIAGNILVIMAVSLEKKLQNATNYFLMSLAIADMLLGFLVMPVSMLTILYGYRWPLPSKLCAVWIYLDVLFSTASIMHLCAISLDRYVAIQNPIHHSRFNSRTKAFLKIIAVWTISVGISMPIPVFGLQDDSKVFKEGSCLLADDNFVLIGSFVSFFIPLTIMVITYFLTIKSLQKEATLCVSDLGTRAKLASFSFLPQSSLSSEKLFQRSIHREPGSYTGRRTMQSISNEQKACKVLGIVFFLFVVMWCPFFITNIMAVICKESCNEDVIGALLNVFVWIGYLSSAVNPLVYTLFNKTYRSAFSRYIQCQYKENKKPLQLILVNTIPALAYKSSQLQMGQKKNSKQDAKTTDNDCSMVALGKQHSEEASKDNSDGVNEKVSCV

As for `[2H]C([2H])(c1c[nH]c2cccc(OC(=O)CCCC(=O)Oc3cccc4[nH]cc(C([2H])([2H])[C@H]5CCCN5C([2H])([2H])[2H])c34)c12)[C@H]1CCCN1C([2H])([2H])[2H]` [Compound I-22, bis(3-(((R)-1-(methyl-d3)pyrrolidin-2-yl)methyl-d2)-1H-indol-4-yl) glutarate], in data set [1], the half-life (as a rule, the time needed for the level to fall by half in the phase considered) at 2 μM was under 4.51 min; the intrinsic metabolic clearance (microsomal CLint) (in general, a measure of how fast metabolising enzymes remove a compound, apart from limits set by blood flow) at 2 μM is over 307 µL/min/mg; the “Remaining Percentage (%) after 60 min, Rat, With cofactors” value amounted to 0%; the “Remaining Percentage (%) after 60 min, Rat, Without cofactors” value is recorded as 0.22%. In addition, in data set [2], the Papp A→B (as a rule, the apparent permeability from the apical to the basolateral side of a cell layer) at 2 h, 5 µM is under 0.25 ×10⁻⁶ cm/s; the Papp B→A (commonly the apparent permeability from the basolateral to the apical side of a cell layer) at 2 h, 5 µM came to 1.01 ×10⁻⁶ cm/s; the efflux ratio – broadly, a quotient of directional permeabilities that is used to spot active efflux – at 2 h, 5 μM was over 4.08. The molecule also came in with a recovery at 2 h, 5 μM in data set [2] (setting [5]) of under 126%. The recovery at 2 h, 5 μM in data set [2] (setting [6]) came out at 101%. Besides, in data set [3], the “Remaining Percentage (%) after 60 min, Human, With cofactors” value was 0%; the “Remaining Percentage (%) after 60 min, Human, Without cofactors” value is reported as 1.38%; the half-life at 2 μM came out at 4.67 min; the intrinsic metabolic clearance (microsomal CLint) at 2 μM is 297 µL/min/mg. For the same molecule, the “metabolic stability in liver microsomes (statement)” value in data set [3] was “rapidly metabolized”. Besides, in data set [4] (setting [7]), the EC50 (in general, the concentration giving half of the maximal effect) turned out to be 13.1 nM. Further, the “RFU@10 μM” value in data set [4] was determined as 5409 RFU.

On to `[2H]C([2H])(c1c[nH]c2cccc(O)c12)[C@H]1CCCN1C([2H])([2H])[2H]` [Compound 13, (R)-3-((1-(methyl-d3)pyrrolidin-2-yl)methyl-d2)-1H-indol-4-ol], for which, in data set [4], the EC50 came out at 44 nM and the “RFU@10 μM” value is reported as 3108 RFU.

`CN1CCC[C@@H]1Cc1c[nH]c2cccc(O)c12` [Compound 10, (R)-3-((1-methylpyrrolidin-2-yl)methyl)-1H-indol-4-ol]: in data set [2], the apparent permeability from apical to basolateral (Papp A→B) at 2 h, 5 µM stood at 23.2 ×10⁻⁶ cm/s; the apparent permeability from basolateral to apical (Papp B→A) at 2 h, 5 µM was determined as 18.8 ×10⁻⁶ cm/s; the efflux ratio at 2 h, 5 μM came to 0.81. The molecule also displayed a recovery at 2 h, 5 μM in data set [2] (setting [5]) of 82.7%. The same molecule had a recovery at 2 h, 5 μM in data set [2] (setting [6]) of 92%. Besides, in data set [4], the response was half-maximal at 47 nM (EC50) and the “RFU@10 μM” value was 2929 RFU.

Take `CN1CCC[C@@H]1Cc1c[nH]c2cccc(OC(=O)CCCC(=O)Oc3cccc4[nH]cc(C[C@H]5CCCN5C)c34)c12` [Compound I-13, Bis(3-(((R)-1-methylpyrrolidin-2-yl)methyl)-1H-indol-4-yl) glutarate]: in data set [1], the half-life at 2 μM was under 4.51 min; the microsomal CLint at 2 μM is over 307 µL/min/mg; the “Remaining Percentage (%) after 60 min, Rat, With cofactors” value is on record as 0%; the “Remaining Percentage (%) after 60 min, Rat, Without cofactors” value is 0%. In data set [2], the Papp A→B at 2 h, 5 µM was 0.63 ×10⁻⁶ cm/s; the Papp B→A at 2 h, 5 µM was 4.1 ×10⁻⁶ cm/s; the efflux ratio at 2 h, 5 μM stood at 6.5. Further, the recovery at 2 h, 5 μM in data set [2] (setting [5]) came to 94.7%. This molecule also came in with a recovery at 2 h, 5 μM in data set [2] (setting [6]) of 110%. Moreover, in data set [3], the “Remaining Percentage (%) after 60 min, Human, With cofactors” value came out at 0%; the “Remaining Percentage (%) after 60 min, Human, Without cofactors” value is recorded as 0%; the half-life at 2 μM is under 4.51 min; the microsomal CLint at 2 μM is over 307 µL/min/mg. For the same molecule, the “metabolic stability in liver microsomes (statement)” value in data set [3] is reported as “rapidly metabolized”. Moreover, the EC50 in data set [4] (setting [7]) is 32.3 nM. For the same molecule, in data set [4], the “RFU@10 μM” value is recorded as 3887 RFU.

As to `CN(C)CCc1c[nH]c2cccc(O)c12` [Psilocin, 4-hydroxy-N,N-dimethyltryptamine, reference compound], the “t1/2 Rat” value in data set [1] (rat liver microsomes with NADPH, 2 μM) is on record as 89.01 min. Moreover, the “Remaining Percentage (%) after 60 min, Rat, With cofactors” value in data set [1] came to 62.68%. In data set [2], the apical-to-basolateral permeability (Papp A→B) at 2 h, 5 µM worked out at 24.6 ×10⁻⁶ cm/s and the Papp B→A at 2 h, 5 µM turned out to be 18.7 ×10⁻⁶ cm/s. Besides, in data set [2] (setting [5]), the recovery at 2 h, 5 μM came out at 100%. The recovery at 2 h, 5 μM in data set [2] (setting [6]) amounted to 102%. For the same molecule, in data set [3] (human liver microsomes with NADPH, 2 μM), the “t1/2 Human” value worked out at 117.32 min. Besides, the “Remaining Percentage (%) after 60 min, Human, With cofactors” value in data set [3] stood at 70.16%. In addition, the “RFU@10 μM” value in data set [4] is 308 RFU.
